Test results taken from publication PMC10698726 (Molecular Pharmaceutics, 2023).
“And” between values parts separate entries of the source, which are not always exact repeats. Equal values may be shown once. Read-outs that look alike come from different tables or passages of the source.

Experiments:
[1] = target: T1, OCT3 (Homo sapiens, UniProt O75751); experiment: Inhibition of model substrate uptake in OCT3-overexpressing HEK293 cells; type: cell-based; details: for IC50: read-out: IC50
T1 construct: expressed in transfected cells; host or cells: HEK293
T1 sequence (O75751 1-556): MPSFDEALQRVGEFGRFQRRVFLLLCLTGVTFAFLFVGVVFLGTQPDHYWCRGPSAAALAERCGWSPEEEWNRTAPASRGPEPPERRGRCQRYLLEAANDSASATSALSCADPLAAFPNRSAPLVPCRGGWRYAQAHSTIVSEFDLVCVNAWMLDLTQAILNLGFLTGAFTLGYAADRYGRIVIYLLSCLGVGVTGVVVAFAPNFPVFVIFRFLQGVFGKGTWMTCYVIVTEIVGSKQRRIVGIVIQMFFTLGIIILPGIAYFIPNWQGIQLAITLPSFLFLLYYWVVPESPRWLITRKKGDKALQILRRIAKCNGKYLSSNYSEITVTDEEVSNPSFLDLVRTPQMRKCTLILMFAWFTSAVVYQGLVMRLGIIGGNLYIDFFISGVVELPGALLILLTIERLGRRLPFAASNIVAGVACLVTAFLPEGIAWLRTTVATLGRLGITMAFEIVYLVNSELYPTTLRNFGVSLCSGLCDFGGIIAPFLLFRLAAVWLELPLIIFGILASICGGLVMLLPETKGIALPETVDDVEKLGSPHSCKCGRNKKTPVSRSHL
Description: (§1) All experiments were carried out in transporter-overexpressing HEK293 cells. OCT1-, OCT2-, NET-, DAT-, and SERT-overexpressing cells as well as the empty-vector transfected control cell line were generated as described earlier,[26]−[28] whereas the OCT3-overexpressing HEK293 cells were generous gift of from Drs. Koepsell and Gorbulev (University of Würzburg, Germany). All cells were cultivated in Dulbecco’s modified Eagle’s medium (DMEM) supplemented with 10% (v/v) FCS, penicillin (100 U/mL), and streptomycin (100 μg/mL) and kept in culture for no longer than 30 passages.
(§2) As for the transport experiments, 300,000 HEK293 cells were plated in poly-D-lysine-coated 24-well plates 2 days ahead of the experiment. On every plate, two wells of empty vector (EV)-transfected cells were used as a control to account for the passive influx of the model substrate, and two wells of transporter-overexpressing cells were used to determine the noninhibited uptake of the model substrate. Cells were initially washed once with 37 °C HBSS+ and then incubated with 2 μM model substrate (0.2 μM for MPP^+ uptake by MATs) with and without 20 μM inhibitor for 5 min. For concentration-dependent inhibition experiments, the cells were incubated with increasing inhibitor concentrations. The incubation was terminated by aspiration of the buffer before cells were washed twice with ice-cold HBSS+ and lysed in 80% acetonitrile. Cell lysates were transferred into a black 96-well plate for the fluorescence measurement of ASP^+ or used for sample preparation for LC–MS/MS analysis. […] Fluorescence quantification was performed in technical duplicates.
(§3) Transporter-mediated net uptake was calculated as the difference between uptake in transporter-overexpressing cells and that in the empty-vector-transfected control. […] Vmax is the maximum transport velocity, while Km is defined as the substance concentration that is required to reach half of vmax. The ratio of vmax over Km is termed intrinsic clearance Clint. For inhibition experiments, the transport activity was calculated by using the following equation [drawing 1]
(§4) SubstrateEV refers to the passive uptake of model substrates into the control cells and substratenoninhibited is the uptake in transporter-overexpressing cells without the presence of any inhibitor. The percent inhibition values are then calculated as described in the following [drawing 2]
(§5) For concentration inhibition experiments, the transporter activity was plotted against the log10 of inhibitor concentrations, and the data were fitted by the following equation to determine IC50 values [drawing 3]
(§6) Y refers to the transporter activity, whereas Ymax is the maximum and Ymin is the minimal transporter activity. X is the log10 of inhibitor concentrations, IC50 is the half-maximal inhibitory concentration, and hill slope is the slope factor.

[2] = target: T2, OCT1 (Homo sapiens, UniProt O15245); experiment: Inhibition of model substrate uptake in OCT1-overexpressing HEK293 cells; type: cell-based; parameters: expressed in transfected cells; host or cells: HEK293
T2 sequence (O15245 1-554): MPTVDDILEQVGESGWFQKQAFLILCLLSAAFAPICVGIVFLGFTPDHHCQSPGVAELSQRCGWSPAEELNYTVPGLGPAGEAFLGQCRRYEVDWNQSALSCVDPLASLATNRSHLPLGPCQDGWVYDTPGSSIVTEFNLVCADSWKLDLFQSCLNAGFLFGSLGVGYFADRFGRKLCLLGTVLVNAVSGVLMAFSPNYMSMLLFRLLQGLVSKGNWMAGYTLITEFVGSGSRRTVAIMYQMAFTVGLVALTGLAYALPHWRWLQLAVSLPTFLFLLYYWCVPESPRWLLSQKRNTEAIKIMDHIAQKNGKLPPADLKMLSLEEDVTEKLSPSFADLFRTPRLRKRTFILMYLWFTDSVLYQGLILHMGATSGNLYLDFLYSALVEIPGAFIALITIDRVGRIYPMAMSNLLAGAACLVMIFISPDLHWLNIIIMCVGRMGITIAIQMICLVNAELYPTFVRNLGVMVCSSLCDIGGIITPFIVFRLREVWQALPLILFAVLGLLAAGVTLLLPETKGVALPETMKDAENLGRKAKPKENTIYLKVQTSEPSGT
Description: Koepsell and Gorbulev (University of Würzburg, Germany).
Fluorescence quantification was performed in technical duplicates.

[3] = target: T3, OCT2 (Homo sapiens, UniProt O15244); experiment: in vitro; details: for IC50: IC50, OCT2, Table S5, 2 μM ASP+ as model substrate, 5 min
T3 sequence (O15244 1-555): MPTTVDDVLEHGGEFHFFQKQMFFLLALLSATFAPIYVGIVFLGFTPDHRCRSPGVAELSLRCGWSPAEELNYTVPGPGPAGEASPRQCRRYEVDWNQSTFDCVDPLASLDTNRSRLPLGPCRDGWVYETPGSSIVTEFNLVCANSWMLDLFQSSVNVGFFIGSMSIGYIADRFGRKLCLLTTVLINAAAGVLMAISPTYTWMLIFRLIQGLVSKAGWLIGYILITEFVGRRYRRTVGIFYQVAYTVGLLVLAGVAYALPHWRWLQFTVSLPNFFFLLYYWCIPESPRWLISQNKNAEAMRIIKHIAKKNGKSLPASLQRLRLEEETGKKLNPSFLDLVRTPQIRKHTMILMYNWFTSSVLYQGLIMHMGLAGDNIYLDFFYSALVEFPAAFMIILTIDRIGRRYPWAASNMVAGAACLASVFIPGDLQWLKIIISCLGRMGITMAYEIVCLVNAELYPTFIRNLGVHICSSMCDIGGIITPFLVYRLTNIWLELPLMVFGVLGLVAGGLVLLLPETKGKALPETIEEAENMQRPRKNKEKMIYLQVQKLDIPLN
Description: as §1, §2, §3, §4, §5, §6

[4] = HEK293, 5 min, read-out: (S)-Zolmitriptan inhibition [%]
[5] = HEK293, 5 min, read-out: (S,S)-Ethambutol inhibition [%]
[6] = HEK293, OCT3, 20 μM inhibitor, 2 μM ASP+, 5 min, read-out: ASP+ inhibition [%]
[7] = HEK293, 5 min, read-out: (S)-Zolmitriptan inhibition [%], OCT3, 20 μM inhibitor, 2 μM (S)-zolmitriptan, 5 min
[8] = HEK293, 5 min, read-out: (S,S)-Ethambutol inhibition [%], OCT3, 20 μM inhibitor, 2 μM (S,S)-ethambutol, 5 min
[9] = OCT3, Table S5, 2 μM ASP+ or ethambutol as model substrate, 5 min
[10] = OCT3, 20 μM inhibitor, 2 μM ASP+, 5 min
[11] = OCT3, model substrate 2 μM (S)-zolmitriptan, 5 min
[12] = OCT3, model substrate 2 μM (S,S)-ethambutol, 5 min
[13] = OCT3, model substrate 2 μM N-ethyllidocaine, 5 min

CCN[C@H](C)Cc1cccc(C(F)(F)F)c1 [(R)-Fenfluramine]
inhibition at 20 µM [1, 4]: 55.9%
inhibition at 20 µM [1, 5]: 40.7%
inhibition at 20 µM [1, 6]: 7.6%
ASP+ inhibition [%] ([2]; OCT1, 20 μM inhibitor, 2 μM ASP+, 5 min, mean of three experiments): 38.4%

CC(C)NC[C@H](O)COc1ccc(CC(N)=O)cc1 [(S)-Atenolol]
inhibition at 20 µM [1, 7]: -3.8%
inhibition at 20 µM [1, 8]: 2.9%
inhibition at 20 µM [1, 6]: 0.9%

CC(C)NC[C@@H](O)COc1ccc(CC(N)=O)cc1 [(R)-Atenolol]
inhibition at 20 µM [1, 7]: 5.5%
inhibition at 20 µM [1, 8]: 0.9%
inhibition at 20 µM [1, 6]: 3.9%

C#CCN(C)C(C)Cc1ccccc1 (stereo not shown) [Deprenyl]
x-fold Stereoselectivity ([3]; human, pH 7.4): 1.4 fold

CCCN[C@H]1CCc2nc(N)sc2C1 [Pramipexole]
selectivity ratio at 5 min ([3]; human, OCT2-overexpressing HEK293 cells, pH 7.4): 4
selectivity ratio at 5 min ([2]; human, OCT1-overexpressing HEK293 cells, pH 7.4, OCT1, ratio of the IC50 values of the two enantiomers of the drug, read-out: x-fold Stereoselectivity): 1.6

COc1ccc(CCN(C)CCC[C@@](C#N)(c2ccc(OC)c(OC)c2)C(C)C)cc1OC [(S)-Verapamil]
inhibition at 20 µM [1, 4]: 57.6%
inhibition at 20 µM [1, 5]: 70.7%
inhibition at 20 µM [1, 6]: 20.8%

Cc1ccc(O)c([C@H](CCN(C(C)C)C(C)C)c2ccccc2)c1 [(R)-Tolterodine]
inhibition at 20 µM [1, 4]: 97.6%
IC50 [1, 9]: 2.3 µM
ASP+ inhibition [%] [1, 10]: 94%
IC50 [1, 11]: 0.57 µM
IC50 [1, 12]: 0.39 µM
IC50 [1, 13]: 0.23 µM
IC50 [1]: 0.17 µM
IC50 [3]: 0.2 µM

CCCNC[C@@H](O)COc1ccccc1C(=O)CCc1ccccc1 [(R)-Propafenone]
inhibition at 20 µM [1, 7]: 53.6%
inhibition at 20 µM [1, 6]: 17.3%

OCC(O)CN1CCN(c2ccccc2)CC1 (stereo not shown) [Dropropizine]
x-fold Stereoselectivity ([3]; OCT2, ratio of the IC50 values of the two enantiomers of the drug): 1.4 fold

CNCC[C@@H](Oc1ccccc1C)c1ccccc1 [(R)-Tomoxetine]
inhibition at 20 µM [1, 7]: 33.2%
(S,S)-Ethambutol inhibition [%] ([1]; OCT3, 20 μM inhibitor, 2 μM (S,S)-ethambutol, 5 min): 39.0%
ASP+ inhibition [%] [1, 10]: 1.1%
IC50 [3]: 6.3 µM

Cc1ccc(O)c([C@@H](CCN(C(C)C)C(C)C)c2ccccc2)c1 [(S)-Tolterodine]
(S)-Zolmitriptan inhibition [%] [1]: 82.9
(S,S)-Ethambutol inhibition [%] [1]: 89.8
IC50 [1, 9]: 25.3 µM
ASP+ inhibition [%] [1, 10]: 53.5% and 54%
IC50 [1, 11]: 7 µM
IC50 [1, 12]: 6.37 µM
IC50 [1, 13]: 3.1 µM
IC50 ([1]; OCT3, model substrate 2 μM famotidine, 5 min): 2.31 µM
IC50 [3]: 0.13 µM
